Patent publication US4740233A, “Substituted 1,2,4-triazolo[1,5-a]-pyrimidine-2-sulfonamides and compositions and methods of controlling undesired vegetation and suppressing the nitrification of ammonium nitrogen in soil” (The Dow Chemical Company, priority 1986, dated 1988)

Experiments:
rice [1] = assay: Postemergent control of plant species; assay type: in vivo, Oryza sativa; conditions: Oryza sativa, post-emergence, 336 h, read-out: percent postemergent control
Protocol: (§1) In representative operations, each compound to be utilized in a series of tests is dissolved in acetone to one-half of the final volume (twice the final concentration) to be used and the acetone solution in each case is admixed with an equal volume of water containing 0.1 percent by weight of surface active material. The compositions, generally in the nature of an emulsion, were employed to spray separate respective plant species which had been grown to a 2-4 leaf stage in soil of good nutrient content in a greenhouse. The various beds were positioned side by side and exposed to substantially identical conditions of temperature and light. Each bed was maintained so as to prevent any interaction with test compounds in different seed beds. Other plants were left untreated to serve as controls. After treatment, the plants were maintained for about two weeks under greenhouse conditions conducive for good plant growth and watered as necessary. Control refers to the reduction in growth compared to the observed results of the same untreated species.

wheat [2] = assay: Postemergent control of plant species; assay type: in vivo, Triticum aestivum; conditions: Triticum aestivum, post-emergence, 336 h, read-out: percent postemergent control
Protocol: as §1

velvetleaf [3] = assay: Postemergent control of plant species; assay type: in vivo, Abutilon theophrasti; conditions: Abutilon theophrasti, post-emergence, 336 h, read-out: percent postemergent control
Protocol: as §1

pigweed = assay: Postemergent control of plant species; assay type: in vivo, Amaranthus spp.; conditions: Amaranthus retroflexus, post-emergence, 336 h, read-out: percent postemergent control
Protocol: as §1

soybean [4] = assay: Postemergent control of plant species; assay type: in vivo, Glycine max.; conditions: Glycine max, post-emergence, 336 h, read-out: percent postemergent control
Protocol: as §1

jimsonweed [5] = assay: Postemergent control of plant species; assay type: in vivo, Datura stramonium; conditions: Datura stramonium, post-emergence, 336 h, read-out: percent postemergent control
Protocol: as §1

yellow nutsedge [6] = assay: Postemergent control of plant species; assay type: in vivo, Cyperus esculentus; conditions: Cyperus, post-emergence, 336 h, read-out: percent postemergent control
Protocol: as §1

corn [7] = assay: Postemergent control of plant species; assay type: in vivo, Zea mays; conditions: Zea mays, post-emergence, 336 h, read-out: percent postemergent control
Protocol: as §1

johnson grass [8] = assay: Postemergent control of plant species; assay type: in vivo, Sorghum halepense; conditions: Sorghum halepense, post-emergence, 336 h, read-out: percent postemergent control
Protocol: as §1

sorghum [9] = assay: Postemergent control of plant species; assay type: in vivo, Sorghum vulgare; conditions: Sorghum, post-emergence, 336 h, read-out: percent postemergent control
Protocol: as §1

cotton [10] = assay: Postemergent control of plant species; assay type: in vivo, Gossypium spp.; conditions: Gossypium hirsutum, post-emergence, 336 h, read-out: percent postemergent control
Protocol: as §1

barnyardgrass [11] = assay: Postemergent control of plant species; assay type: in vivo, Echinochloa crusgalli; conditions: Echinochloa crus-galli, post-emergence, 336 h, read-out: percent postemergent control
Protocol: as §1

yellow foxtail [12] = assay: Postemergent control of plant species; assay type: in vivo, Setaria lutescens; conditions: Setaria, post-emergence, 336 h, read-out: percent postemergent control
Protocol: as §1

annual morning glory [13] = assay: Postemergent control of plant species; assay type: in vivo, Ipomoea spp.; conditions: Ipomoea, post-emergence, 336 h, read-out: percent postemergent control
Protocol: as §1

wild oats = assay: Postemergent control of plant species; assay type: in vivo, Avena fatua; conditions: Avena fatua, post-emergence, 336 h, read-out: percent postemergent control
Protocol: as §1

rape [14] = assay: Postemergent control of plant species; assay type: in vivo, Brassica napus; conditions: Brassica napus, post-emergence, 336 h, read-out: percent postemergent control
Protocol: as §1

cocklebur = assay: Postemergent control of plant species; assay type: in vivo, Xanthium spp.; conditions: Xanthium strumarium, post-emergence, 336 h, read-out: percent postemergent control
Protocol: as §1

sugar beet [15] = assay: Postemergent control of plant species; assay type: in vivo, Beta saccharifera; conditions: Beta vulgaris, post-emergence, 336 h, read-out: percent postemergent control
Protocol: as §1

crabgrass = assay: Postemergent control of plant species; assay type: in vivo, Digitaria spp.; conditions: Digitaria sanguinalis, post-emergence, 336 h, read-out: percent postemergent control
Protocol: as §1

[16] = tested on: nitrification of ammonium nitrogen; assay: Suppression of nitrification of ammonium nitrogen in soil; conditions: 27° C.
Procedure, shortened: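 Value is % NH4-N remaining after a two-week, 27° C incubation of treated soil held at 1/3 bar tension moisture. Nitrate was measured with an ion-selective electrode after extraction with ammonium sulfate solution and 10 min shaking.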

annual morning glory [17] = assay: Preemergent control of plant species; assay type: in vivo, Ipomoea spp.; conditions: Ipomoea, pre-emergence, 336 h; 0.25 lb/acre; read-out: percent preemergent control
Procedure, shortened: (§2)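 Seeds planted in good agricultural soil beds; active ingredients then applied to the bed surface as aqueous emulsion at listed rates. Beds kept two weeks in greenhouse with watering. Control scored against water-treated beds.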

jimsonweed [18] = assay: Preemergent control of plant species; assay type: in vivo, Datura stramonium; conditions: Datura stramonium, pre-emergence, 336 h; 0.25 lb/acre; read-out: percent preemergent control
Procedure, shortened: as §2

corn [19] = assay: Preemergent control of plant species; assay type: in vivo, Zea mays; conditions: Zea mays, pre-emergence, 336 h; 0.25 lb/acre; read-out: percent preemergent control
Procedure, shortened: as §2

velvetleaf [20] = assay: Preemergent control of plant species; assay type: in vivo, Abutilon theophrasti; conditions: Abutilon theophrasti, pre-emergence, 336 h; 0.25 lb/acre; read-out: percent preemergent control
Procedure, shortened: as §2

johnson grass [21] = assay: Preemergent control of plant species; assay type: in vivo, Sorghum halepense; conditions: Sorghum halepense, pre-emergence, 336 h; 0.25 lb/acre; read-out: percent preemergent control
Procedure, shortened: as §2

rape [22] = assay: Preemergent control of plant species; assay type: in vivo, Brassica napus; conditions: Brassica napus, pre-emergence, 336 h; 0.25 lb/acre; read-out: percent preemergent control
Procedure, shortened: as §2

rice [23] = assay: Preemergent control of plant species; assay type: in vivo, Oryza sativa; conditions: Oryza sativa, pre-emergence, 336 h; 0.25 lb/acre; read-out: percent preemergent control
Procedure, shortened: as §2

yellow nutsedge [24] = assay: Preemergent control of plant species; assay type: in vivo, Cyperus esculentus; conditions: Cyperus, pre-emergence, 336 h; 0.25 lb/acre; read-out: percent preemergent control
Procedure, shortened: as §2

cotton [25] = assay: Preemergent control of plant species; assay type: in vivo, Gossypium spp.; conditions: Gossypium hirsutum, pre-emergence, 336 h; 0.25 lb/acre; read-out: percent preemergent control
Procedure, shortened: as §2

soybean [26] = assay: Preemergent control of plant species; assay type: in vivo, Glycine max.; conditions: Glycine max, pre-emergence, 336 h; 0.25 lb/acre; read-out: percent preemergent control
Procedure, shortened: as §2

sugar beet [27] = assay: Preemergent control of plant species; assay type: in vivo, Beta saccharifera; conditions: Beta vulgaris, pre-emergence, 336 h; 0.25 lb/acre; read-out: percent preemergent control
Procedure, shortened: as §2

barnyardgrass [28] = assay: Preemergent control of plant species; assay type: in vivo, Echinochloa crusgalli; conditions: Echinochloa crus-galli, pre-emergence, 336 h; 0.25 lb/acre; read-out: percent preemergent control
Procedure, shortened: as §2

wheat [29] = assay: Preemergent control of plant species; assay type: in vivo, Triticum aestivum; conditions: Triticum aestivum, pre-emergence, 336 h; 0.25 lb/acre; read-out: percent preemergent control
Procedure, shortened: as §2

sorghum [30] = assay: Preemergent control of plant species; assay type: in vivo, Sorghum vulgare; conditions: Sorghum, pre-emergence, 336 h; 0.25 lb/acre; read-out: percent preemergent control
Procedure, shortened: as §2

yellow foxtail [31] = assay: Preemergent control of plant species; assay type: in vivo, Setaria lutescens; conditions: Setaria, pre-emergence, 336 h; 0.25 lb/acre; read-out: percent preemergent control
Procedure, shortened: as §2

SMILES	plant injury at 500 ppm (rice [1]) [%]	plant injury at 500 ppm (wheat [2]) [%]	pest or weed control at 500 ppm (velvetleaf [3]) [%]	pest or weed control at 500 ppm (pigweed) [%]	plant injury at 500 ppm (soybean [4]) [%]	pest or weed control at 500 ppm (jimsonweed [5]) [%]	pest or weed control at 500 ppm (yellow nutsedge [6]) [%]	plant injury at 500 ppm (corn [7]) [%]	pest or weed control at 500 ppm (johnson grass [8]) [%]	plant injury at 500 ppm (sorghum [9]) [%]	plant injury at 500 ppm (cotton [10]) [%]	pest or weed control at 500 ppm (barnyardgrass [11]) [%]	pest or weed control at 500 ppm (yellow foxtail [12]) [%]	pest or weed control at 500 ppm (annual morning glory [13]) [%]	pest or weed control at 500 ppm (wild oats) [%]	plant injury at 500 ppm (rape [14]) [%]	pest or weed control at 500 ppm (cocklebur) [%]	plant injury at 500 ppm (sugar beet [15]) [%]	pest or weed control at 500 ppm (crabgrass) [%]	% NH4-N Remaining After 2 Weeks Incubation ([16]; 1 ppm) [%]	other results
Cc1cc(C)n2nc(S(=O)(=O)Nc3c(F)c(F)cc(F)c3F)nc2n1 [Compound 90]	0	0	50	100	50	70	0	0	20	0	0	0	70	30	0	70	75	–	–	–	–
O=S(=O)(Nc1ccccc1C(F)(F)F)c1nc2ncc(Cl)cn2n1 [Compound 118]	0	–	80	70	0	100	70	0	0	0	0	0	20	70	0	80	100	100	60	61	% NH4-N Remaining After 2 Weeks Incubation ([16]; 0.06 ppm): 30%; % NH4-N Remaining After 2 Weeks Incubation ([16]; 0.25 ppm): 37%; % NH4-N Remaining After 2 Weeks Incubation ([16]; 4 ppm): 85%
Cc1cc(C)n2nc(S(=O)(=O)Nc3c(Cl)cc(Cl)cc3Cl)nc2n1 [Compound 35, 5,7-dimethyl-N-(2,4,6-trichlorophynyl)-1,2,4-trizaolo[1,5-a]pyrimidine-2-sulfonamide]	0	–	0	90	70	30	0	0	0	20	0	0	0	40	0	70	95	80	0	50	% NH4-N Remaining After 2 Weeks Incubation ([16]; 0.01 ppm): 0%; % NH4-N Remaining After 2 Weeks Incubation ([16]; 0.1 ppm): 3%; % NH4-N Remaining After 2 Weeks Incubation ([16]; 10 ppm): 78%
COc1ccc(Cl)c(NS(=O)(=O)c2nc3nc(C)ccn3n2)c1Cl [Compound 170]	35	0	90	100	30	90	98	25	85	25	50	75	80	70	80	–	25	95	60	–	pest or weed control at 280.212 g/ha (annual morning glory [17]): 30%; pest or weed control at 280.212 g/ha (jimsonweed [18]): 0%; plant injury at 280.212 g/ha (corn [19]): 20%; pest or weed control at 280.212 g/ha (velvetleaf [20]): 85%; pest or weed control at 280.212 g/ha (johnson grass [21]): 90%; plant injury at 280.212 g/ha (rape [22]): 100%; plant injury at 280.212 g/ha (rice [23]): 30%; pest or weed control at 280.212 g/ha (yellow nutsedge [24]): 0%; plant injury at 280.212 g/ha (cotton [25]): 70%; plant injury at 280.212 g/ha (soybean [26]): 0%; plant injury at 280.212 g/ha (sugar beet [27]): 90%; pest or weed control at 280.212 g/ha (barnyardgrass [28]): 40%; plant injury at 280.212 g/ha (wheat [29]): 10%; plant injury at 280.212 g/ha (sorghum [30]): 80%; pest or weed control at 280.212 g/ha (yellow foxtail [31]): 70%
Cc1cc(C)n2nc(S(=O)(=O)Nc3ccccc3S(C)(=O)=O)nc2n1 [Compound 45]	50	0	50	–	60	0	0	0	0	0	0	0	0	10	0	70	25	70	0	45	% NH4-N Remaining After 2 Weeks Incubation ([16]; 0.01 ppm): 0%; % NH4-N Remaining After 2 Weeks Incubation ([16]; 0.1 ppm): 3%; % NH4-N Remaining After 2 Weeks Incubation ([16]; 10 ppm): 94%
